Experimental data reported in US9469615B2, “Quinoxalines and AZA-quinoxalines as CRTH2 receptor modulators” (Merck Sharp & Dohme Corp., priority 2010, dated 2016).

Target: T1, hCRTH2 (Homo sapiens, UniProt Q9Y5Y4)
T1 construct: expressed in transfected cells; host or cells: HEK (human embryonic kidney) cells expressing hCRTH2; membrane preparation
T1 sequence (Q9Y5Y4 1-395): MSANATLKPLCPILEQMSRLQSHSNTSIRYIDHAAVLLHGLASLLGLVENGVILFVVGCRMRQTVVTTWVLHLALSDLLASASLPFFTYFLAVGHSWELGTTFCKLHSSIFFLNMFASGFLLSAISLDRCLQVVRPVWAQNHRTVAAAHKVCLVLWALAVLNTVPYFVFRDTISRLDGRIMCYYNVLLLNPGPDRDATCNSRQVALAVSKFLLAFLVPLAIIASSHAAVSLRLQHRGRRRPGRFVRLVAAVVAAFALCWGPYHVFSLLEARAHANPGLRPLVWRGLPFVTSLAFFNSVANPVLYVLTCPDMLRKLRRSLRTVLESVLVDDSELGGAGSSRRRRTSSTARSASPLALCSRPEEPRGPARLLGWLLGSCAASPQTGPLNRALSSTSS
Experiment: Radioligand binding assay ([3H]PGD2 competition, HEK-hCRTH2 membranes)
Conditions: [3H]PGD2 competition, Table B
How it was run: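 Competition binding with 3.0 nM [3H]PGD2 and 8-20 μg HEK-hCRTH2 membrane protein in 50 mM Tris-HCl pH 7.4, 1 mM EDTA, 2 mM MnCl2, 1% Me2SO, 60 min at room temperature. Nonspecific binding defined with 10 μM PGD2; bound radioactivity counted after filtration.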

Row | Structure (SMILES) | Ki [nM]
1 | O=C(O)CCCCc1nc2cc(C(=O)N3CCCN(Cc4ccccc4)CC3)ccc2nc1-c1ccc(Cl)cc1 [compound 591, 5-(7-(4-benzyl-1,4-diazepane-1-carbonyl)-3-(4-chlorophenyl)quinoxalin-2-yl)pentanoic acid] | 2.1 to 20
2 | O=C(O)CCCCc1nc2cc(C(=O)N3CCN(C(=O)c4ccco4)CC3)ccc2nc1-c1ccc(Cl)cc1 [compound 592, 5-(3-(4-chlorophenyl)-7-(4-(furan-2-carbonyl)piperazine-1-carbonyl)quinoxalin-2-yl)pentanoic acid] | 2.1 to 20
3 | CN(Cc1ccccc1)C(=O)c1ccc2nc(-c3ccc(Cl)cc3)c(CCCCC(=O)O)nc2c1 [compound 593, 5-(7-(benzyl(methyl)carbamoyl)-3-(4-chlorophenyl)quinoxalin-2-yl)pentanoic acid] | 0.1 to 2
4 | O=C(O)CCCCc1nc2cc(C(=O)N3CCN(c4ccncc4)CC3)ccc2nc1-c1ccc(Cl)cc1 [compound 594, 5-(3-(4-chlorophenyl)-7-(4-(pyridin-4-yl)piperazine-l-carbonyl)quinoxalin-2-yl)pentanoic acid] | 201 to 700
5 | N#Cc1cccnc1N1CCN(C(=O)c2ccc3nc(-c4ccc(Cl)cc4)c(CCCCC(=O)O)nc3c2)CC1 [compound 595, 5-(3-(4-chlorophenyl)-7-(4-(3-cyanopyridin-2-yl)piperazine-1-carbonyl)quinoxalin-2-yl)pentanoic acid] | 0.1 to 2
6 | O=C(O)CCCCc1nc2cc(C(=O)N3CCN(c4c(Cl)cncc4Cl)CC3)ccc2nc1-c1ccc(Cl)cc1 [compound 596, 5-(3-(4-chlorophenyl)-7-(4-(3,5-dichloropyridin-4-yl)piperazine-1-carbonyl)quinoxalin-2-yl)pentanoic acid] | 0.1 to 2
7 | O=C(O)CCCCc1nc2cc(C(=O)N3CCN(c4cnccn4)CC3)ccc2nc1-c1ccc(Cl)cc1 [compound 597, 5-(3-(4-chlorophenyl)-7-(4-(pyrazin-2-yl)piperazine-1-carbonyl)quinoxalin-2-yl)pentanoic acid] | 2.1 to 20
8 | O=C(O)CCCCc1nc2cc(C(=O)N3CCN4CCCC4C3)ccc2nc1-c1ccc(Cl)cc1 (centres unmarked) [compound 598, 5-(3-(4-chlorophenyl)-7-(octahydropyrrolo[1,2-a]pyrazine-2-carbonyl)quinoxalin-2-yl)pentanoic acid] | 2.1 to 20
9 | O=C(O)CCCCc1nc2cc(C(=O)N3CCN(c4ccc(C(F)(F)F)cn4)CC3)ccc2nc1-c1ccc(Cl)cc1 [compound 599, 5-(3-(4-chlorophenyl)-7-(4-(5-yl)piperazine-1-carbonyl)quinoxalin-2-yl)pentanoic acid] | 0.1 to 2
10 | O=C(O)CCCCc1nc2cc(C(=O)N3CCN(c4ccccc4C(F)(F)F)CC3)ccc2nc1-c1ccc(Cl)cc1 [compound 600, 5-(3-(4-chlorophenyl)-7-(4-(2-(trifluoromethyl)phenyl)piperazine-1-carbonyl)quinoxalin-2-yl)pentanoic acid] | 0.1 to 2
11 | O=C(O)CCCCc1nc2cc(C(=O)N3CCN(c4nccs4)CC3)ccc2nc1-c1ccc(Cl)cc1 [compound 601, 5-(3-(4-chlorophenyl)-7-(4-(thiazol-2-yl)piperazine-1-carbonyl)quinoxalin-2-yl)pentanoic acid] | 2.1 to 20
12 | O=C(O)CCCCc1nc2cc(C(=O)N3CCN(c4nc5ccccc5s4)CC3)ccc2nc1-c1ccc(Cl)cc1 [compound 602, 5-(7-(4-(benzo[d]thiazol-2-yl)piperazine-1-carbonyl)-3-(4-chlorophenyl)quinoxalin-2-yl)pentanoic acid] | 0.1 to 2
13 | O=C(O)CCCCc1nc2cc(C(=O)N3CCc4ccccc4C3)ccc2nc1-c1ccc(Cl)cc1 [compound 603, 5-(3-(4-chlorophenyl)-7-(1,2,3,4-tetrahydroisoquinoline-2-carbonyl)quinoxalin-2-yl)pentanoic acid] | 2.1 to 20
14 | N#CC1(c2ccccc2)CCN(C(=O)c2ccc3nc(-c4ccc(Cl)cc4)c(CCCCC(=O)O)nc3c2)C1 (centres unmarked) [compound 604, 5-(3-(4--chlorophenyl)-7-(3-cyano-3-phenyl-pyrrolidine-1-carbonyl)quinoxalin-2-yl)pentanoic acid] | 0.1 to 2
15 | CS(=O)(=O)N1CCC(NC(=O)c2ccc3nc(-c4ccc(Cl)cc4)c(CCCCC(=O)O)nc3c2)c2ccccc21 (centres unmarked) [compound 605, 5-(3-(4-chlorophenyl)-7-((1-(methylsulfonyl)-1,2,3,4-tetrahydroquinolin-4-yl)carbamoyl)quinoxalin-2-yl)pentanoic acid] | 0.1 to 2
16 | O=C(O)CCCCc1nc2cc(C(=O)N3CC(c4ccc(F)cc4)C3)ccc2nc1-c1ccc(Cl)cc1 [compound 606, 5-(3-(4-chlorophenyl)-7-(3-(4-fluorophenyl)azetidine-1-carbonyl)quinoxalin-2-yl)pentanoic acid] | 2.1 to 20

Row | Structure (SMILES) | Ki [nM]
17 | O=C(O)CCCCc1nc2cc(C(=O)N3Cc4ccccc4C3)ccc2nc1-c1ccc(Cl)cc1 [compound 607, 5-(3-(4-chlorophenyl)-7-(isoindoline-2-carbonyl)quinoxalin-2-yl)pentanoic acid] | 0.1 to 2
18 | O=C(O)CCCCc1nc2cc(C(=O)N3CCc4c([nH]c5ccccc45)C3)ccc2nc1-c1ccc(Cl)cc1 [compound 608, 5-(3-(4-chlorophenyl)-7-(2,3,4,9-tetrahydro-1H-pyrido[3,4-b]indole-2-carbonyl)quinoxalin-2-yl)pentanoic acid] | 2.1 to 20
19 | O=C(O)CCCCc1nc2cc(C(=O)N3CCN(c4ccccc4Cl)CC3)ccc2nc1-c1ccc(Cl)cc1 [compound 609, 5-(3-(4-chlorophenyl)-7-(4-(2-chlorophenyl)piperazine-1-carbonyl)quinoxalin-2-yl)pentanoic acid] | 0.1 to 2
20 | O=C(O)CCCCc1nc2cc(C(=O)N3CCN(c4cccc(C(F)(F)F)c4)CC3)ccc2nc1-c1ccc(Cl)cc1 [compound 610, 5-(3-(4-chlorophenyl)-7-(4-(3-(trifluoromethyl)phenyl)piperazine-1-carbonyl)quinoxalin-2-yl)pentanoic acid] | 0.1 to 2
21 | CCCCN(CCC)C(=O)c1ccc2nc(-c3ccc(Cl)cc3)c(CCCCC(=O)O)nc2c1 [compound 611, 5-(7-(butyl(propyl)carbamoyl)-3-(4-chlorophenyl)quinoxalin-2-yl)pentanoic acid] | 2.1 to 20
22 | O=C(O)CCCCc1nc2cc(C(=O)N[C@H]3CCOc4cc(F)ccc43)ccc2nc1-c1ccc(Cl)cc1 [compound 612, (S)-5-(3-(4-chlorophenyl)-7-((7-fluorochroman-4-yl)carbamoyl)quinoxalin-2-yl)pentanoic acid] | 0.1 to 2
23 | O=C(O)CCCCc1nc2cc(C(=O)N3CCO[C@@H](c4ccc(F)cc4)C3)ccc2nc1-c1ccc(Cl)cc1 [compound 613, (S)-5-(3-(4-chlorophenyl)-7-(2-(4-fluorophenyl)morpholine-4-carbonyl)quinoxalin-2-yl)pentanoic acid] | 20.1 to 200
24 | O=C(O)CCCCc1nc2cc(C(=O)N3CCO[C@H](c4ccc(F)cc4)C3)ccc2nc1-c1ccc(Cl)cc1 [compound 614, (R)-5-(3-(4-chlorophenyl)-7-(2-(4-fluorophenyl)morpholine-4-carbonyl)quinoxalin-2-yl)pentanoic acid] | 2.1 to 20
25 | O=C(O)CCCCc1nc2cc(C(=O)N3CCO[C@@H](c4ccc(C(F)(F)F)cc4)C3)ccc2nc1-c1ccc(Cl)cc1 [compound 615, (S)-5-(3-(4-chlorophenyl)-7-(2-(4-(trifluoromethyl)phenyl)morpholine-4-carbonyl)quinoxalin-2-yl)pentanoic acid] | 2.1 to 20
26 | O=C(O)CCCCc1nc2cc(C(=O)N3CCO[C@H](c4ccc(C(F)(F)F)cc4)C3)ccc2nc1-c1ccc(Cl)cc1 [compound 616, (R)-5-(3-(4-chlorophenyl)-7-(2-(4-(trifluoromethyl)phenyl)morpholine-4-carbonyl)quinoxalin-2-yl)pentanoic acid] | 20.1 to 200
27 | O=C(O)CCCCc1nc2cc(C(=O)N[C@@H]3CCCc4ccncc43)ccc2nc1-c1ccc(Cl)cc1 [compound 617] | 0.1 to 2
28 | O=C(O)CCCCc1nc2cc(C(=O)N[C@H]3CCCc4ccncc43)ccc2nc1-c1ccc(Cl)cc1 [compound 618, (S)-5-(3-(4-chlorophenyl)-7-((5,6,7,8-tetrahydroisoquinolin-8-yl)carbamoyl)quinoxalin-2-yl)pentanoic acid] | 0.1 to 2
29 | Cc1ccccc1N1CCN(C(=O)c2ccc3nc(-c4ccc(Cl)cc4)c(CCCCC(=O)O)nc3c2)CC1 [compound 619, 5-(3-(4-chlorophenyl)-7-(4-(o-tolyl)piperazine-1-carbonyl)quinoxalin-2-yl)pentanoic acid] | 0.1 to 2
30 | Cc1cccc(N2CCN(C(=O)c3ccc4nc(-c5ccc(Cl)cc5)c(CCCCC(=O)O)nc4c3)CC2)c1 [compound 620, 5-(3-(4-chlorophenyl)-7-(4-(m-tolyl)piperazine-1-carbonyl)quinoxalin-2-yl)pentanoic acid] | 0.1 to 2
31 | Cc1ccc(N2CCN(C(=O)c3ccc4nc(-c5ccc(Cl)cc5)c(CCCCC(=O)O)nc4c3)CC2)cc1C [compound 621, 5-(3-(4-chlorophenyl)-7-(4-(3,4-dimethylphenyl)piperazine-1-carbonyl)quinoxalin-2-yl)pentanoic acid] | 0.1 to 2
32 | COc1ccc(N2CCN(C(=O)c3ccc4nc(-c5ccc(Cl)cc5)c(CCCCC(=O)O)nc4c3)CC2)cc1 [compound 622, 5-(3-(4-chlorophenyl)-7-(4-(4-methoxyphenyl)piperazine-1-carbonyl)quinoxalin-2-yl)pentanoic acid] | 2.1 to 20
